The text below walks through data of patent US8859535B2, “Hydroxy substituted isoquinolinone derivatives” (Novartis AG, priority 2011, dated 2014).

In general, IC50 refers to the concentration needed to halve the response being measured.

Assay [1] concerns the target T1, human MDM2 protein (amino acids 2-188) (Homo sapiens, UniProt Q00987).
T1 construct: human MDM2 protein (amino acids 2-188); made in house
As to the kind of experiment: p53-MDM2 TR-FRET assay (p53-MDM2 Assay 1). The assay is classed as binding. The following applies: 1.25 nM MDM2-biotinylated, 10 nM Cy5-p53 peptide; read-out: IC50 (μM) of p53-Hdm2 inhibition (TR-FRET) Assay 1. The method, then: (§1) Time Resolved Fluorescence Energy Transfer (TR-FRET) Assay
(§2) The inhibition of p53-MDM2 and p53-MDM4 interactions is measured by time resolved fluorescence energy transfer (TR-FRET). Fluorescence energy transfer (or Foerster resonance energy transfer) describes an energy transfer between donor and acceptor fluorescent molecules. For this assay, human MDM2 protein (amino acids 2-188) and human MDM4 protein (amino acids 2-185), tagged with a C-terminal biotin moiety, are used in combination with a Europium labeled streptavidin (Perkin Elmer, Inc., Waltham, Mass., USA) serving as the donor fluorophore. The p53 derived, Cy5 labeled peptide Cy5-TFSDLWKLL (p53 aa18-26) is the energy acceptor. Upon excitation of the donor molecule at 340 nm, binding interaction between MDM2 or MDM4 and the p53 peptide induces energy transfer and enhanced response at the acceptor emission wavelength at 665 nm. Disruption of the formation of the p53-MDM2 or p53-MDM4 complex due to an inhibitor molecule binding to the p53 binding site of MDM2 or MDM4 results in increased donor emission at 620 nm. The ratiometric FRET assay readout is calculated from the raw data of the two distinct fluorescence signals measured in time resolved mode (fluorescence 665 nm/fluorescence 620 nm×1000).
(§3) After addition of 1.25 nM MDM2-biotinylated or 2.5 nM MDM4-biotinylated (internal preparations), and 0.625 nM Europium labeled streptavidin (Perkin Elmer), the solution is pre-incubated for 15 minutes at room temperature, then 10 nM Cy5-p53 peptide (internal preparation) is added before an incubation at room temperature for 15 minutes prior to reading the plate. For measurement of samples, a Victor II microplate reader (Perkin Elmer) is used with the following settings: Excitation 340 nm, Emission Donor 620 nm and Emission Acceptor 665 nm. IC50 values are calculated by curve fitting using XLfit. If not specified, reagents are purchased from Sigma-Aldrich Chemie GmBH, Buchs, Switzerland.
(§4) This assay was used to evaluate compounds displaying inhibition of p53-MDM2 interaction and p53-MDM4 interaction at IC50s of 0.005 to 50 μM (p53-MDM2 Assay 1 and p53-MDM4 Assay 1, respectively). For selected compounds displaying IC50s between […] on MDM2, a slightly modified assay is used with the following adaptations: 0.1 nM MDM2, 0.1 nM Europium labeled streptavidin and Tecan genios Pro is used as a microplate reader for the fluorescence measurements (p53-MDM2 Assay 2).
(In general: In TR-FRET formats the signal depends on donor and acceptor labels being close together.)

Assay [2] has as its target T2, human MDM4 protein (amino acids 2-185) (Homo sapiens, UniProt O15151).
T2 construct: human MDM4 protein (amino acids 2-185); made in house
T2 sequence (O15151 2-185): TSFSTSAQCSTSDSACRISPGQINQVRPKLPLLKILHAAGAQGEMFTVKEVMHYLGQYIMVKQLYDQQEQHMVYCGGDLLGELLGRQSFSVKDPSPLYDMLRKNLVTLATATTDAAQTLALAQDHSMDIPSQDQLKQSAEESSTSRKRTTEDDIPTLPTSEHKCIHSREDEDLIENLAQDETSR
As to the kind of experiment: p53-MDM4 TR-FRET assay (p53-MDM4 Assay 1). The assay is classed as binding. The note with it: 2.5 nM MDM4-biotinylated, 10 nM Cy5-p53 peptide; read-out: IC50 (μM) of p53-Hdm4 inhibition (TR-FRET) Assay 1. Here is the method:
as §1, §2, §3, §4

T1 sequence (Q00987 2-188): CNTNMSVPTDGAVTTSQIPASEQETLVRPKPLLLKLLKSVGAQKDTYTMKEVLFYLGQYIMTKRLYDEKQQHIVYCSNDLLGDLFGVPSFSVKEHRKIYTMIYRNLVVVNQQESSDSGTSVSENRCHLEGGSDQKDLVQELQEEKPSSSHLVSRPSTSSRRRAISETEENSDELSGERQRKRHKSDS

As for `COc1cc2c(cc1OC(C)C)[C@H](c1ccc(Cl)cc1)N(c1ccc([C@@](C)(O)C3CCOCC3)cc1)C(=O)C2` (single isomer, unassigned) [Example 32], the concentration for half-maximal inhibition (IC50) in assay [1] came out at 0.0023 µM; in assay [2], 2.19 µM.
For the compound `COc1cc2c(cc1OC(C)C)[C@H](c1ccc(Cl)cc1)N(c1ccc([C@](C)(O)C3CCOCC3)cc1)C(=O)C2` (single isomer, unassigned) [Example 33], the concentration for half-maximal inhibition (IC50) in assay [1] came out at 0.216 µM; in assay [2], 67.8 µM.
Regarding `COc1cc2c(cc1OC(C)C)[C@H](c1ccc(Cl)cc1)N(c1ccc([C@](C)(O)C3CCOCC3)c(F)c1)C(=O)C2` (single isomer, unassigned) [Example 38], the concentration for half-maximal inhibition (IC50) in assay [1] turned out to be 0.383 µM; in assay [2], 84 µM.
Regarding `COc1cc2c(cc1OC(C)C)[C@H](c1ccc(Cl)cc1)N(c1ccc([C@@](C)(O)C3CCOCC3)c(F)c1)C(=O)C2` (single isomer, unassigned) [Example 39], the IC50 in assay [1] was 0.0023 µM; in assay [2], 1.52 µM.
Consider `COc1cc2c(cc1OC(C)C)[C@H](c1ccc(Cl)cc1)N(c1ccc([C@@](C)(O)C3CCC(F)(F)CC3)cc1)C(=O)C2` (single isomer, unassigned) [Example 47], for which the IC50 in assay [1] is 0.005 µM; in assay [2], 7.17 µM.
Take `COc1cc2c(cc1OC(C)C)[C@H](c1ccc(Cl)cc1)N(c1ccc([C@@](C)(O)C3CCN(C(C)=O)CC3)cc1)C(=O)C2` (single isomer, unassigned) [Example 53]: the IC50 was 0.0017 µM in assay [1] and 1.62 µM in assay [2].
Regarding `COc1cc2c(cc1OC(C)C)[C@H](c1ccc(Cl)cc1)N(c1ccc([C@](C)(O)C3CCN(C(C)=O)CC3)cc1)C(=O)C2` (single isomer, unassigned) [Example 54], the IC50 in assay [1] came to 0.105 µM; in assay [2], 36.7 µM.
Consider `COc1cc2c(cc1OC(C)C)[C@H](c1ccc(Cl)cc1)N(c1ccc([C@](C)(O)C3CCN(C)CC3)cc1)C(=O)C2` (single isomer, unassigned) [Example 95], for which the concentration for half-maximal inhibition (IC50) in assay [1] amounted to 0.129 µM; in assay [2], 49.9 µM.
Consider `COc1cc2c(cc1OC(C)C)[C@H](c1ccc(Cl)cc1)N(c1ccc([C@@](C)(O)C34CCC(CC3)O4)cc1)C(=O)C2` (single isomer, unassigned) [Example 136], for which the IC50 in assay [1] was found to be 0.0025 µM; in assay [2] it was 2.96 µM.
For the compound `COc1cc2c(cc1OC(C)C)[C@H](c1ccc(Cl)cc1)N(c1ccc([C@](C)(O)C34CCC(CC3)O4)cc1)C(=O)C2` (single isomer, unassigned) [Example 137], the values for the IC50 in assay [1] and in assay [2] were 0.145 µM and 25.7 µM, respectively.
The corresponding values for `COc1cc2c(cc1OC(C)C)[C@H](c1ccc(Cl)cc1)N(c1ccc([C@@](C)(O)C34CC5CC(CC(C5)C3)C4)cc1)C(=O)C2` (single isomer, unassigned) [Example 142] are 0.0054 µM and 13.2 µM.
For the compound `COc1cccc(C(C)(O)c2ccc(N3C(=O)Cc4cc(OC)c(OC(C)C)cc4[C@@H]3c3ccc(Cl)cc3)cc2)c1` (stereo partly drawn) [Example 1, (S)-1-(4-Chloro-phenyl)-2-{4-[1-hydroxy-1-(3-methoxy-phenyl)-ethyl]-phenyl}-7-isopropoxy-6-methoxy-1,4-dihydro-2H-isoquinolin-3-one], the IC50 in assay [1] came out at 0.0432 µM; in assay [2], 70.8 µM.
`COc1cccc(C(O)c2ccc(N3C(=O)Cc4cc(OC)c(OC(C)C)cc4[C@@H]3c3ccc(Cl)cc3)cc2)c1` (stereo partly drawn) [Example 2, (S)-1-(4-Chloro-phenyl)-2-{4-[hydroxy-(3-methoxy-phenyl)-methyl]-phenyl}-7-isopropoxy-6-methoxy-1,4-dihydro-2H-isoquinolin-3-one]: the 50% inhibitory concentration (IC50) in assay [1] worked out at 0.0868 µM; in assay [2], 87 µM.
As for `CCC(C)(O)c1ccc(N2C(=O)Cc3cc(OC)c(OC(C)C)cc3[C@@H]2c2ccc(Cl)cc2)cc1` (stereo partly drawn) [Example 3, (S)-1-(4-Chloro-phenyl)-2-[4-(1-hydroxy-1-methyl-propyl)-phenyl]-7-isopropoxy-6-methoxy-1,4-dihydro-2H-isoquinolin-3-one], the IC50 is 0.0267 µM in assay [1] and 18.9 µM in assay [2].
Taken in the same sequence, the figures for `COc1ccc(C(O)c2ccc(N3C(=O)Cc4cc(OC)c(OC(C)C)cc4[C@@H]3c3ccc(Cl)cc3)cc2)cc1` (stereo partly drawn) [Example 4, (S)-1-(4-Chloro-phenyl)-2-{4-[hydroxy-(4-methoxy-phenyl)-methyl]-phenyl}-7-isopropoxy-6-methoxy-1,4-dihydro-2H-isoquinolin-3-one] were 0.0107 µM and 17.3 µM.
Take `COc1ccc(C(C)(O)c2ccc(N3C(=O)Cc4cc(OC)c(OC(C)C)cc4[C@@H]3c3ccc(Cl)cc3)cc2)cc1` (stereo partly drawn) [Example 5, (S)-1-(4-Chloro-phenyl)-2-{4-[1-hydroxy-1-(4-methoxy-phenyl)-ethyl]-phenyl}-7-isopropoxy-6-methoxy-1,4-dihydro-2H-isoquinolin-3-one]: the IC50 is 0.0082 µM in assay [1] and 10.5 µM in assay [2].
Take `COc1cc2c(cc1OC(C)C)[C@H](c1ccc(Cl)cc1)N(c1ccc(C(C)(O)c3ccc(F)cc3)cc1)C(=O)C2` (stereo partly drawn) [Example 6, (S)-1-(4-Chloro-phenyl)-2-{4-[1-(4-fluoro-phenyl)-1-hydroxy-ethyl]-phenyl}-7-isopropoxy-6-methoxy-1,4-dihydro-2H-isoquinolin-3-one]: the concentration for half-maximal inhibition (IC50) in assay [1] turned out to be 0.0343 µM; in assay [2] it was 61.8 µM.
For the compound `COc1ccc(C(O)(c2ccc(N3C(=O)Cc4cc(OC)c(OC(C)C)cc4[C@@H]3c3ccc(Cl)cc3)cc2)C(F)(F)F)cc1` (stereo partly drawn) [Example 7, (S)-1-(4-Chloro-phenyl)-7-isopropoxy-6-methoxy-2-{4-[2,2,2-trifluoro-1-hydroxy-1-(4-methoxy-phenyl)-ethyl]-phenyl}-1,4-dihydro-2H-isoquinolin-3-one], the IC50 was determined as 0.132 µM in assay [1] and 49.3 µM in assay [2].
Turning to `COc1cc2c(cc1OC(C)C)[C@H](c1ccc(Cl)cc1)N(c1ccc(C(O)C3CCCCC3)cc1)C(=O)C2` (stereo partly drawn) [Example 8, (S)-1-(4-Chloro-phenyl)-2-[4-(cyclohexyl-hydroxy-methyl)-phenyl]-7-isopropoxy-6-methoxy-1,4-dihydro-2H-isoquinolin-3-one], the IC50 in assay [1] was 0.0316 µM; in assay [2], 61.3 µM.
Consider `COc1cc2c(cc1OC(C)C)[C@H](c1ccc(Cl)cc1)N(c1ccc(C(C)(C)O)cc1)C(=O)C2` [Example 11, (S)-1-(4-Chloro-phenyl)-2-[4-(1-hydroxy-1-methyl-ethyl)-phenyl]-7-isopropoxy-6-methoxy-1,4-dihydro-2H-isoquinolin-3-one], for which the IC50 in assay [1] stood at 0.0555 µM; in assay [2], 51.6 µM.
Taken in the same sequence, the figures for `COc1cc2c(cc1OC(C)C)[C@H](c1ccc(Cl)cc1)N(c1ccc(C(C)(O)c3ccncc3)cn1)C(=O)C2` (stereo partly drawn) [Example 12, (S)-1-(4-Chloro-phenyl)-2-[5-(1-hydroxy-1-pyridin-4-yl-ethyl)-pyridin-2-yl]-7-isopropoxy-6-methoxy-1,4-dihydro-2H-isoquinolin-3-one] were 0.0195 µM and 23.9 µM.
The corresponding values for `COc1cc2c(cc1OC(C)C)[C@H](c1ccc(Cl)cc1)N(c1ccc(C(C)(O)c3cn(C)cn3)cc1)C(=O)C2` (stereo partly drawn) [Example 13, (S)-1-(4-Chloro-phenyl)-2-{4-[1-hydroxy-1-(1-methyl-1H-imidazol-4-yl)-ethyl]-phenyl}-7-isopropoxy-6-methoxy-1,4-dihydro-2H-isoquinolin-3-one] are 0.0608 µM and 82.7 µM.
For the compound `COc1cc2c(cc1OC(C)C)[C@H](c1ccc(Cl)cc1)N(c1ccc(C(C)(O)c3ccn(C)n3)cc1)C(=O)C2` (stereo partly drawn) [Example 14, (S)-1-(4-Chloro-phenyl)-2-{4-[1-hydroxy-1-(1-methyl-1H-pyrazol-3-yl)-ethyl]-phenyl}-7-isopropoxy-6-methoxy-1,4-dihydro-2H-isoquinolin-3-one], the IC50 in assay [1] stood at 0.0494 µM; in assay [2] it was 53.7 µM.
